Results published in ChEMBL document CHEMBL2311382, “Tryptanthrin derivatives as Toxoplasma gondii inhibitors--structure-activity-relationship of the 6-position” (Bioorg Med Chem Lett, 2013).
pIC50: −log10 of the molar value.

Legend:
[1] = Therapeutic index, ratio of TD50 for human foreskin fibroblast cells to ID 50 for Toxoplasma gondii; type: cell-based; conditions: read-out: TI
[2] = Cytotoxicity against human foreskin fibroblast cells by colorimetric method; type: cell-based; conditions: human foreskin fibroblast (HFF) cells, read-out: TD50 (the source's name)
Toxoplasma gondii = test: Antimicrobial activity against Toxoplasma gondii assessed as inhibition of growth measured after 5 days by beta-galactosidase assay; type: functional; conditions: 120 h, read-out: ID50 (the source's name)

SMILES: O=c1c2ccccc2nc2n1-c1ccc(Br)cc1/C2=N/O
- selectivity ratio [1]: 590
- CC50 [2]: 50 µM
- pIC50 (Toxoplasma gondii): 7.07

SMILES: CC(=O)O/N=C1\c2ccccc2-n2c1nc1ccccc1c2=O
- selectivity ratio [1]: 32
- CC50 [2]: 35 µM
- pIC50 (Toxoplasma gondii): 5.96

SMILES: O=CO/N=C1\c2ccccc2-n2c1nc1ccccc1c2=O
- selectivity ratio [1]: 35
- CC50 [2]: 22 µM
- pIC50 (Toxoplasma gondii): 6.21

SMILES: N/N=C1/c2ccccc2-n2c1nc1ccccc1c2=O
- selectivity ratio [1]: 16
- CC50 [2]: 32 µM
- pIC50 (Toxoplasma gondii): 5.70

SMILES: N/N=C1/c2cc(Br)ccc2-n2c1nc1ccccc1c2=O
- selectivity ratio [1]: 250
- CC50 [2]: 79 µM
- pIC50 (Toxoplasma gondii): 6.51

SMILES: CC(=O)N/N=C1/c2ccccc2-n2c1nc1ccccc1c2=O
- selectivity ratio [1]: > 8.3
- CC50 [2]: > 100 µM
- pIC50 (Toxoplasma gondii): 4.92

SMILES: O=C(N/N=C1/c2ccccc2-n2c1nc1ccccc1c2=O)C(F)(F)F
- selectivity ratio [1]: > 63
- CC50 [2]: > 100 µM
- pIC50 (Toxoplasma gondii): 5.80

SMILES: CC1(O)c2cc(Br)ccc2-n2c1nc1ccccc1c2=O (configuration not stated)
- selectivity ratio [1]: > 14
- CC50 [2]: > 100 µM
- pIC50 (Toxoplasma gondii): 5.15

SMILES: O=C1c2ccccc2N[C@H]2[C@H](O)c3ccccc3N12
- selectivity ratio [1]: 50
- CC50 [2]: 12 µM
- pIC50 (Toxoplasma gondii): 6.62

SMILES: O=C1c2ccccc2N[C@H]2[C@H](O)c3cc(Br)ccc3N12
- selectivity ratio [1]: > 50000
- CC50 [2]: > 100 µM
- pIC50 (Toxoplasma gondii): 8.70

SMILES: CC(=O)O[C@@H]1c2ccccc2N2C(=O)c3ccccc3N[C@@H]12
- selectivity ratio [1]: 40
- CC50 [2]: 40 µM
- pIC50 (Toxoplasma gondii): 6.00

SMILES: O=Nc1c2ccccc2n2c(O)c3ccccc3nc12
- selectivity ratio [1]: > 130
- CC50 [2]: > 100 µM
- pIC50 (Toxoplasma gondii): 6.10

SMILES: O=C1c2cc(Br)ccc2-n2c1nc1ccccc1c2=O
- selectivity ratio [1]: > 33000
- CC50 [2]: > 100 µM
- pIC50 (Toxoplasma gondii): 8.49

SMILES: CC1(O)c2ccccc2-n2c1nc1ccccc1c2=O (configuration not stated)
- selectivity ratio [1]: > 11
- CC50 [2]: > 100 µM
- pIC50 (Toxoplasma gondii): 5.06

SMILES: CON=C1c2ccccc2-n2c1nc1ccccc1c2=O (mixture of isomers)
- selectivity ratio [1]: > 77
- CC50 [2]: > 100 µM
- pIC50 (Toxoplasma gondii): 5.89

SMILES: CON=C1c2cc(Br)ccc2-n2c1nc1ccccc1c2=O (single isomer, unassigned)
- selectivity ratio [1]: > 1200
- CC50 [2]: > 100 µM
- pIC50 (Toxoplasma gondii): 7.08

SMILES: CC(=O)CC1(O)c2ccccc2-n2c1nc1ccccc1c2=O (configuration not stated) [PHAITANTHRINS A]
- selectivity ratio [1]: 49
- CC50 [2]: 11 µM
- pIC50 (Toxoplasma gondii): 6.64

SMILES: COc1cc(Cc2cnc(N)nc2N)cc(OC)c1OC [TRIMETHOPRIM]
- selectivity ratio [1]: > 3
- CC50 [2]: > 100 µM
- pIC50 (Toxoplasma gondii): 4.82

SMILES: O=C1c2ccccc2-n2c1nc1ccccc1c2=O [TRYPTANTHRIN]
- selectivity ratio [1]: 45
- CC50 [2]: 6.4 µM
- pIC50 (Toxoplasma gondii): 6.85
